Experimental data reported in patent US7186695B2 (priority 2001, dated 2007).
Entries after “also recorded” stand apart in the source; their conditions may differ. Like-named read-outs stand apart in the source and are kept apart here.

Tests used:
BCE cells = assay: Proliferation and viability of cultured cells, 72 hr, cell count; type: cell-based, bovine; conditions: for IC50: Bos taurus, 72 h, BCE
Method: FIG. 18. Inhibition of proliferation and reduction in viability of BCE cells by GSAO. 15,000 (part A and B) or 50,000 (part C and D) BCE cells per well were seeded into gelatinised 24-well culture plates and allowed to attach for 24 hr (part A, B and D) or 72 hr (part C). The media was then replaced with DMEM containing 5% BCS and 0 to 1 mM GSAO or GSM and either 1 ng per mL FGF-2 (part A) or 10 ng per mL VEGF (part B). In part D, the media was replaced with DMEM containing 5% BCS and 1 ng per mL FGF-2 and either 10 μM GSAO or GSM. In part C, the media was replaced with DMEM containing 5% BCS and 0 to 1 mM GSAO or GSAA. Cells were cultured for 72 hr in parts A, B and C or for discrete times up to 48 hr in part D and then dispersed and counted. The dotted line in parts A, B and C indicate the cell number in control wells containing DMEM and 5% BCS which represented no to limited proliferation. The dotted line in part D represents no change in cell number over the 48 hr. The data points and errors represent the mean and range of duplicate wells.
(§1) BCE (Folkman et al. 1979), BAE, BxPC-3 (ATCC, Bethesda, Md.), HT1080 (Jiang et al., 1999), 3T3 (ATCC, Bethesda, Md.) and BVSM (Hogg et al., 1997) cells were harvested and cultured as indicated. Cells (0.5 mL of 30,000 or 100,000 cells per mL) were seeded into gelatinized 24-well culture plates (Corning Costar, Corning, N.Y.) in Dulbecco's Modified Eagle's Medium (DMEM, JHR Bioscience, Lenexa, Kans.) containing 10% fetal calf serum (FCS, Intergen Comp., Purchase, N.Y.) and 1% Glutamine Pen-Strep (GPS, Irvine Scientific, Santa Ana, Va.) and allowed to attach for 24 hr in 10% CO2 at 37° C. The media was then replaced with DMEM and 1% GPS containing 0 to 1 mM GSAO or GSAA and either 5% bovine calf serum (BCS, HyClone, Logan, Utah) and 1 ng per mL FGF-2 (Genzyme, Cambridge, Mass.) or 5% BCS and 10 ng per mL VEGF (Genzyme, Cambridge, Mass.) for BCE cells, 5% or 10% BCS for BAE cells, 5% BCS for BVSM cells, and 5% FCS for BxPC-3, HT1080 and 3T3 cells. Cells were cultured for 0 to 72 hr in 10% CO2 at 37° C. then dispersed in trypsin/EDTA (GibcoBRL, Granc Island, N.Y.), resuspended in Coulter balanced electrolyte solution and counted with a Z1 Coulter counter (Coulter Corp., Miami, Fla.). In all experiments there were two control wells containing DMEM with 1% GPS and either 5% BCS for BCE cells, 2% BCS for BAE and BVSM cells, or 2% FCS for BxPC-3, HT1080 and 3T3 cells. These wells represented no to limited proliferation.

BAE cells = assay: as above; type: cell-based, bovine; conditions: for IC50: Bos taurus, 72 h, BAE, 72 hr
Method: as §1

BxPC-3 cells = assay: as above; type: cell-based, human
Method: (§2) FIG. 19. Effect of GSAO on Proliferation of non-endothelial cells. 15,000 BxPC-3 (part A), HT1080 (part B), 3T3 (part C) or BVSM (part D) cells per well were seeded into gelatinised 24-well culture plates and allowed to attach for 24 hr. The media was then replaced with DMEM containing 0 to 1 mM GSAO or GSAA and either 5% BCS (part D) or 5% FCS (parts A, B and C). Cells were cultured for 72 hr and then dispersed and counted. The dotted lines indicate the cell number in control wells containing DMEM and 2% BCS (part D) or 2% FCS (parts A, B and C) which represented no to limited proliferation. The data points and errors represent the mean and range of duplicate wells.
as §1

HT1080 cells = assay: as above; type: cell-based, human
Method: as §2, §1

BVSM cells = assay: as above; type: cell-based, bovine
Method: as §2, §1

3T3 fibroblasts = assay: as above; type: cell-based, murine
Method: as §2, §1

Human bone marrow cells = assay: 12 day bone marrow culture assay, granulocyte/macrophage colonies; type: cell-based; conditions: 12 days
Method: FIG. 20. Effect of GSAO on Proliferation of bone marrow progenitor cells. Human bone marrow cells were incubated in semi-solid agar containing 20% BCS, […] and 0 to 100 μM GSAA or GSAO for 12 days. Granulocyte/macrophage colonies of 40 or more cells were counted under an inverted microscope. The data points and errors represent the mean and SE of quadruplicate cultures.
GSAO reduced the number of granulocyte/macrophage colonies in a 12 day human bone marrow culture assay with an IC50 of ˜30 μM (FIG. 20). […] Human bone marrow cells (˜5×10^5 cells per mL) were added to semi-solid agar in DMEM containing 20% BCS, 5 ng per mL IL-3 and 0 to 100 μM GSM or GSAO. The cultures were incubated for 12 days at 37° C. and 5% CO2 and clusters of 40 or more cells were counted under an inverted microscope according to Metcalf (1977).

SMILES: N[C@@H](CCC(=O)N[C@@H](CSCC(=O)Nc1ccc([As](=O)(O)O)cc1)C(=O)NCC(=O)O)C(=O)O [GSAA, 4-(N-(S-glutathionylacetyl)amino)phenylarsonic acid, reference compound]
- effect on viability of BCE cells (BCE cells; 0 to 1 mM): no significant effect
- effect on proliferation of BCE cells (BCE cells; highest concentration used, 1 mM): only a marginal effect
- effect on proliferation or viability of BAE cells (BAE cells; not shown): did not effect either proliferation or viability
- effect on proliferation or viability (BxPC-3 cells; BxPC-3, up to a concentration of 1 mM): no significant effect
- effect on proliferation or viability (HT1080 cells; HT1080, up to a concentration of 1 mM): no significant effect
- effect on proliferation or viability (BVSM cells; up to a concentration of 1 mM): no significant effect
- effect on proliferation or viability (3T3 fibroblasts; 3T3, up to a concentration of 1 mM): no significant effect
- effect on colony numbers (Human bone marrow cells; up to a concentration of 100 μM): no effect

SMILES: NC(CCC(=O)NC(CSCC(=O)Nc1ccc([As]=O)cc1)C(=O)NCC(=O)O)C(=O)O (centres unmarked) [GSAO, 4-(N-(S-glutathionylacetyl)amino)-phenylarsenoxide]
- decrease in viability of BCE cells over time (BCE cells; 10 μM GSAO, after 8 hours): no decrease in viability
- IC50 (BCE cells; 5% BCS + 1 ng/mL FGF-2, 72 hr, read-out: Proliferation IC50): ~0.1 µM
- IC50 (BCE cells; 5% BCS + 1 ng/mL FGF-2, >90% confluent, 72 hr, read-out: Viability IC50): ~10 µM
- IC50 (BCE cells; 5% BCS + 10 ng/mL VEGF, 72 hr, read-out: Proliferation IC50): ~0.05 µM
- IC50 (BCE cells; 5% BCS + 10 ng/mL VEGF, >90% confluent, 72 hr, read-out: Viability IC50): ~3 µM
- IC50 (BAE cells; 5% BCS, read-out: Proliferation IC50): ~0.02 µM
- IC50 (BAE cells; 5% BCS, >90% confluent, read-out: Viability IC50): ~8 µM
- IC50 (BAE cells; 10% BCS, read-out: Proliferation IC50): ~0.2 µM
- IC50 (BAE cells; 10% BCS, >90% confluent, read-out: Viability IC50): ~10 µM
- Proliferation IC50 (BxPC-3 cells; BxPc3, 5% FCS, 72 hr): did not affect the proliferation; also recorded: No effect
- IC50 (BxPC-3 cells; Homo sapiens, BXPC-3, BxPc3, 5% FCS, 72 hr): ~40 µM
- Proliferation IC50 (HT1080 cells; HT1080, 5% FCS, 72 hr): did not affect the proliferation; also recorded: No effect
- IC50 (HT1080 cells; Homo sapiens, HT-1080, HT1080, 5% FCS, 72 hr): ~40 µM
- Proliferation IC50 (BVSM cells; 5% BCS, 72 hr): did not affect the proliferation; also recorded: No effect
- IC50 (BVSM cells; Bos taurus, 5% BCS, 72 hr): ~40 µM
- Proliferation IC50 (3T3 fibroblasts; 3T3, 5% FCS, 72 hr): did not affect the proliferation; also recorded: No effect
- IC50 (3T3 fibroblasts; Mus musculus, Fibroblast, 3T3, 5% FCS, 72 hr): ~40 µM
- IC50 (Human bone marrow cells; Homo sapiens, Bone marrow cell, 288 h, semi-solid agar, 20% BCS, IL-3, read-out: IC50 for reduction of the number of granulocyte/macrophage colonies): ~30 µM
